Source: ChEMBL document CHEMBL4196049, “β,γ-diamino acids as building blocks for new analogues of Gramicidin S: Synthesis and biological activity” (Eur J Med Chem, 2018)
In brackets after ≈: the same amount, converted by molar mass. Non-standard residues stand in square brackets, D forms with d. Residues, ends and D or L forms follow the SMILES beside them. Orn = NCCC[C@H](N)C(=O)O

Columns and labels:
Bacillus subtilis = test: Antibacterial activity against Bacillus subtilis subsp. subtilis CIP 52.65 after 48 hrs by two-fold serial dilution method; type: functional; conditions: CIP 52.65, 48 h
Pseudomonas aeruginosa = test: Antibacterial activity against Pseudomonas aeruginosa CIP 82.118 ATCC 9027 after 48 hrs by two-fold serial dilution method; type: functional; conditions: CIP 82.118 ATCC 9027, 48 h
Escherichia coli = test: Antibacterial activity against Escherichia coli CIP 53.126 ATCC 8739 after 48 hrs by two-fold serial dilution method; type: functional; conditions: ATCC 8739 = CIP 53.126, 48 h
Streptococcus salivarius = test: Antibacterial activity against Streptococcus salivarius CIP 102503 after 48 hrs by two-fold serial dilution method; type: functional; conditions: CIP 102503, 48 h
Bacillus cereus = test: Antibacterial activity against Bacillus cereus CIP 66.24 after 48 hrs by two-fold serial dilution method; type: functional; conditions: CIP 66.24, 48 h
Enterococcus faecium = test: Antibacterial activity against Enterococcus faecium CIP 103014 after 48 hrs by two-fold serial dilution method; type: functional; conditions: CIP 103014, 48 h
Enterococcus faecalis [1] = test: Antibacterial activity against Enterococcus faecalis CIP 103015 after 48 hrs by two-fold serial dilution method; type: functional; conditions: CIP 103015, 48 h
Staphylococcus aureus = test: Antibacterial activity against Staphylococcus aureus subsp. aureus CIP 4.83 ATCC 6538 after 48 hrs by two-fold serial dilution method; type: functional; conditions: CIP 4.83 ATCC 6538, 48 h
Enterococcus faecalis [2] = test: Antibacterial activity against Enterococcus faecalis CIP 103214 after 48 hrs by two-fold serial dilution method; type: functional; conditions: CIP 103214, 48 h
[3] = Hemolytic activity in human erythrocytes at 100 ug/ml after 30 mins relative to control; type: ADME, cell-based, Erythrocyte; conditions: read-out: Activity
[4] = Hemolytic activity in human erythrocytes at 50 ug/ml after 30 mins relative to control; type: ADME, cell-based, Erythrocyte; conditions: read-out: Activity

CC(C)C[C@@H]1NC(=O)[C@H](CCCN)NC(=O)[C@H](C(C)C)NC(=O)[C@@H]2CCCN2C(=O)[C@@H](Cc2ccccc2)NC(=O)[C@H](CC(C)C)NC(=O)[C@H](CCCN)NC(=O)[C@H](C(C)C)NC(=O)[C@@H]2CCCN2C(=O)[C@@H](Cc2ccccc2)NC1=O (cyclo(V[Orn]L[dF]PV[Orn]L[dF]P))
MIC (Bacillus subtilis): 3.12 mg/L (≈ 2.74 µM) | MIC (Pseudomonas aeruginosa): ≥ 100 mg/L | MIC (Escherichia coli): 12.5 mg/L (≈ 11 µM) | MIC (Streptococcus salivarius): 3.12 mg/L (≈ 2.74 µM) | MIC (Bacillus cereus): 6.25 mg/L (≈ 5.48 µM) | MIC (Enterococcus faecium): 3.12 mg/L (≈ 2.74 µM) | MIC (Enterococcus faecalis [1]): 3.12 mg/L (≈ 2.74 µM) | MIC (Staphylococcus aureus): 3.12 mg/L (≈ 2.74 µM) | MIC (Enterococcus faecalis [2]): 3.12 mg/L (≈ 2.74 µM)

CC(C)C[C@@H]1NC(=O)[C@H](CCCN)NC(=O)[C@H](C(C)C)NC(=O)[C@@H]2CCCN2C(=O)[C@@H](Cc2ccccc2)NC(=O)[C@H](CC(C)C)NC(=O)[C@H](CCCN)NC(=O)[C@H](C(C)C)NC(=O)[C@@H]2CCCN2C(=O)[C@@H](Cc2ccccc2)NC1=O (cyclo(L[dF]PV[Orn]L[dF]PV[Orn]))
hemolysis at 0.5 h, 100 ug/ml [3]: 83% | hemolysis at 0.5 h, 50 ug/ml [4]: 74%
